# Measurements from ChEMBL document CHEMBL1145631, “Development of a fluorescence polarization based assay for histone deacetylase ligand discovery” (Bioorg Med Chem Lett, 2008).
# Assays:
# [1] = molecular target: Histone deacetylase 3/Nuclear receptor corepressor 2 (HDAC3/NCoR2) (Homo sapiens, UniProt O15379); type: protein-complex assay
# Description: Displacement of fluorescent 5-(3-(3-(4-((4-((7-(hydroxyamino)-7-oxoheptyl)carbamoyl)phenylamino)methyl)-1H-1,2,3-triazol-1-yl)propyl)thioureido)-2-(3-hydroxy-6-oxo-6H-xanthen-9-yl)benzoic acid from human HDAC3/NcoR2 by fluorescence polarization assay
# [2] = molecular target: Histone deacetylase; type: protein assay, Homo sapiens
# Description: Displacement of fluorescent 5-(3-(3-(4-((4-((7-(hydroxyamino)-7-oxoheptyl)carbamoyl)phenylamino)methyl)-1H-1,2,3-triazol-1-yl)propyl)thioureido)-2-(3-hydroxy-6-oxo-6H-xanthen-9-yl)benzoic acid from HDAC in human HeLa nuclear cell extract by fluorescence polarization assay
# [3] = molecular target: T1, Protein deacetylase HDAC6 (Homo sapiens, UniProt Q9UBN7)
# T1 sequence (Q9UBN7 whole entry): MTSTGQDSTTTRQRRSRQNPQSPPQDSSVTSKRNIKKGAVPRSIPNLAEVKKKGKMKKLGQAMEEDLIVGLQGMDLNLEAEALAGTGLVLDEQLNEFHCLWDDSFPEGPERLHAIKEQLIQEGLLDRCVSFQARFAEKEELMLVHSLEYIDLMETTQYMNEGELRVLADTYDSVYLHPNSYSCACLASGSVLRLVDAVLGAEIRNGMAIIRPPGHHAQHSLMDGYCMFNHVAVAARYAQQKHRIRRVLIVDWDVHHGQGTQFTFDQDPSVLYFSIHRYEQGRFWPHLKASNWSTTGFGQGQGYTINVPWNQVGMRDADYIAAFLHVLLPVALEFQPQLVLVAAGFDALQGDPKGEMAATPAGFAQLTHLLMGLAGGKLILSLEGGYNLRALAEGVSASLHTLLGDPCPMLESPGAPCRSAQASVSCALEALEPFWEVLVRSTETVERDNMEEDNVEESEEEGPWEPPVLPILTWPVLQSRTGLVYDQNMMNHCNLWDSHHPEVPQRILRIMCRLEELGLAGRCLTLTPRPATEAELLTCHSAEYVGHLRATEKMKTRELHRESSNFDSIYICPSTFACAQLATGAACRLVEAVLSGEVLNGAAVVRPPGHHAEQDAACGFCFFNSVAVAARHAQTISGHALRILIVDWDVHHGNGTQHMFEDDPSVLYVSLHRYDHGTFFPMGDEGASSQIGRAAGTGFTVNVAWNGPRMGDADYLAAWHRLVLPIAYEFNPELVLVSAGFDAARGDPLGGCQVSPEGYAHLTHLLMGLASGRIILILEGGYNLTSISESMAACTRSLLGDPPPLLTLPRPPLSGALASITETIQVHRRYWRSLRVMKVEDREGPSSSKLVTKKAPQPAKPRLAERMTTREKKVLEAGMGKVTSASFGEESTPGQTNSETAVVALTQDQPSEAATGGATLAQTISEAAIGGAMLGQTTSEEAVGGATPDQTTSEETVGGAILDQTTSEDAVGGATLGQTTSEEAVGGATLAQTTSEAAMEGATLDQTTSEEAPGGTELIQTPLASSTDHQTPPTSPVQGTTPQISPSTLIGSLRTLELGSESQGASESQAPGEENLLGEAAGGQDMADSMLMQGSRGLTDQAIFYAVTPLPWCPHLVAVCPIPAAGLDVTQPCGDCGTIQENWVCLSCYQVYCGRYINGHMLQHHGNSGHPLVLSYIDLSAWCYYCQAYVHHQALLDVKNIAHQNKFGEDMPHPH
# Description: Displacement of fluorescent 5-(3-(3-(4-((4-((7-(hydroxyamino)-7-oxoheptyl)carbamoyl)phenylamino)methyl)-1H-1,2,3-triazol-1-yl)propyl)thioureido)-2-(3-hydroxy-6-oxo-6H-xanthen-9-yl)benzoic acid from human HDAC6 by fluorescence polarization assay
# Histone deacetylase 3/Nuclear receptor corepressor 2 (HDAC3/NCoR2), sequence (O15379 whole entry): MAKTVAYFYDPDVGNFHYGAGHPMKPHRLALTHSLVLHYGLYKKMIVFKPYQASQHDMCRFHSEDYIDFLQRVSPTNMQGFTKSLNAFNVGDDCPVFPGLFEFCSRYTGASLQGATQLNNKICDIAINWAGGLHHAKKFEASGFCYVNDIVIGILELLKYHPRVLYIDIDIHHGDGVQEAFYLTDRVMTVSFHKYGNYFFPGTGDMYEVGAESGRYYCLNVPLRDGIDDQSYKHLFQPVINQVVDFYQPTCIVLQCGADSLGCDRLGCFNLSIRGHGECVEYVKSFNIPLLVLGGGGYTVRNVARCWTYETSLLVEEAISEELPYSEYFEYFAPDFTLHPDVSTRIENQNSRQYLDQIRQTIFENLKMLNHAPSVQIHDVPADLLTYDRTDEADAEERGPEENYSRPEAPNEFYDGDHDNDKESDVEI
# Histone deacetylase 3/Nuclear receptor corepressor 2 (HDAC3/NCoR2), sequence (Q9Y618 whole entry, further chain): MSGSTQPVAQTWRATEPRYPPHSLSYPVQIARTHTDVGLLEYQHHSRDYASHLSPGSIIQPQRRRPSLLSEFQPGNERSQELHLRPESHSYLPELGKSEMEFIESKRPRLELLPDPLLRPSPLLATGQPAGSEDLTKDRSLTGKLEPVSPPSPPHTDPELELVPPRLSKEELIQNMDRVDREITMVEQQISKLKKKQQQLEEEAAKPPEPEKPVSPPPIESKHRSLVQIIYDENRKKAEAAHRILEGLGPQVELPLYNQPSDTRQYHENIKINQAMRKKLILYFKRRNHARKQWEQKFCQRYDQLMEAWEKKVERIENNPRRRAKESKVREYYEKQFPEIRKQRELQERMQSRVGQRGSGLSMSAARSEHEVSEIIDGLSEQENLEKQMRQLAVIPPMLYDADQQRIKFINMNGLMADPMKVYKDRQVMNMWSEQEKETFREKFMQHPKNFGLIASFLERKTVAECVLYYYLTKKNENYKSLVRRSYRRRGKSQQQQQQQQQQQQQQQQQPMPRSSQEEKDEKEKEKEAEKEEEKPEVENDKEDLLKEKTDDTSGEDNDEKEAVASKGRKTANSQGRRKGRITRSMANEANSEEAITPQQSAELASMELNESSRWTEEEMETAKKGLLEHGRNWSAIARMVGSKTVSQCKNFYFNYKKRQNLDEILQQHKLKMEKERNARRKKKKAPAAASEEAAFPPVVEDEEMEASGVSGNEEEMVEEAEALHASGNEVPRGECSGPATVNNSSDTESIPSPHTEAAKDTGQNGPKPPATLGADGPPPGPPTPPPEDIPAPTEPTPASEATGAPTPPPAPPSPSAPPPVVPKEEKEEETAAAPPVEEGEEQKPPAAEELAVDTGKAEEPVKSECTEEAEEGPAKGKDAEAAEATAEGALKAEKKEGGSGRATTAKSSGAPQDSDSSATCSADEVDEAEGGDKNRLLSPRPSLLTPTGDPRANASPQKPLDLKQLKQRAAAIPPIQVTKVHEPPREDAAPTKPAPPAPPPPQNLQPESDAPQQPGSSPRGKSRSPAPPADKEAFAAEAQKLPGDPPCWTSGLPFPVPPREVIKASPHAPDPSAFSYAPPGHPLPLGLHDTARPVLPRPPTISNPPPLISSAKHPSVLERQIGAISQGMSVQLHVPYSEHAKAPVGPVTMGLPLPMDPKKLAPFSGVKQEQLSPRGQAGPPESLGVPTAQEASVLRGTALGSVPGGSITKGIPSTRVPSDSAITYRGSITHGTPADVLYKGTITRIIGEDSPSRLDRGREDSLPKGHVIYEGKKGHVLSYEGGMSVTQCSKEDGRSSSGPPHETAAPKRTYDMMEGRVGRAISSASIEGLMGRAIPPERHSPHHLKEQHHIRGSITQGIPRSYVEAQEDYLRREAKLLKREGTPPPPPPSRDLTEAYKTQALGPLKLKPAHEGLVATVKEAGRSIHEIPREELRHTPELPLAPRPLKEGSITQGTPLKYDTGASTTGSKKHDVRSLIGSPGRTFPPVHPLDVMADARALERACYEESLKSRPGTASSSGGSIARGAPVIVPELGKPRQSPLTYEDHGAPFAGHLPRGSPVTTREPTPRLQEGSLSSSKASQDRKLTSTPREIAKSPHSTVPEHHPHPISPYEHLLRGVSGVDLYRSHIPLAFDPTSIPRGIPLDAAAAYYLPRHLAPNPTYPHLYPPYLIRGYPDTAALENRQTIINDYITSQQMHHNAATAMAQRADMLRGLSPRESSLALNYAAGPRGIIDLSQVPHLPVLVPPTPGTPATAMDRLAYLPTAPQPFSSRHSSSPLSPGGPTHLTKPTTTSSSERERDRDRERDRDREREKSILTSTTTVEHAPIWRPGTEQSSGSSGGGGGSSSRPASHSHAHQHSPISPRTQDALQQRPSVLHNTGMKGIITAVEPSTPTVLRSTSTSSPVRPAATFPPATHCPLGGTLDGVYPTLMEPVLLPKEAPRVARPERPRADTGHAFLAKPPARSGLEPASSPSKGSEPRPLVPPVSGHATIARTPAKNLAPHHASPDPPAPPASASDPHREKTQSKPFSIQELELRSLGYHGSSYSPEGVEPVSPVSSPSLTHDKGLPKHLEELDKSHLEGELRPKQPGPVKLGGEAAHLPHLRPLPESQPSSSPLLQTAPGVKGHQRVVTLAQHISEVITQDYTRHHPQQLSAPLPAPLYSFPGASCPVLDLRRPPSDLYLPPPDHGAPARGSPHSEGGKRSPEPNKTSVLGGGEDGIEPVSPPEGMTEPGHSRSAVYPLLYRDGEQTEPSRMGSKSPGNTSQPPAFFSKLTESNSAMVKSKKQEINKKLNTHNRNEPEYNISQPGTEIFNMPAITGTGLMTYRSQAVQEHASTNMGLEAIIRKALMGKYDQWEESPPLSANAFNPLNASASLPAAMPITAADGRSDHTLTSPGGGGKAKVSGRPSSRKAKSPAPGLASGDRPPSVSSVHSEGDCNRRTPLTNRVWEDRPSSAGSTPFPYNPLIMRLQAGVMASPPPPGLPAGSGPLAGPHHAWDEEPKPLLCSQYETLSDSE
Structure (SMILES),IC50 [1],Ki [1],IC50 [2],IC50 [3],Ki [3],Kd [1],Kd [3]
NCCCn1cc(CNc2ccc(C(=O)NCCCCCCC(=O)NO)cc2)nn1,0.137 µM,0.0231 µM,0.058 µM,0.0508 µM,0.0066 µM,,
O=C1CCc2c(ccc3ccccc23)O1 [SPLITOMICIN],> 75 µM,> 75 µM,> 75 µM,> 75 µM,> 75 µM,,
O=C(CCCCCCNC(=O)c1ccc(NCc2cn(CCCNC(=S)Nc3ccc(-c4c5ccc(=O)cc-5oc5ccccc45)c(C(=O)O)c3)nn2)cc1)NO,,,,,,0.002 µM,0.0046 µM
